Test system: male Wister rats
Test: Social interaction test of anxiety
Assay type: in vivo
Settings: rat, 20 mg/kg intraperitoneal, 1 hour before test, 5 minutes observation, significance at p<0.01
Protocol: The procedure for this assay is summarized below.
All experiments were performed on male Wister rats (Harlan laboratories, 275-300 gm). The rats were individually housed in a temperatu,re controlled room (72° F.) on a 12 hour day/night cycle. The rats were provided food and water ad libitum.
Approximately 40 mg of the test compound was weighed into a 20 mL glass vial. To this solid were added 80 μL of lactic acid (85%). The mixture was sonicated for 2 minutes and then 4 mL of distilled water was added in 1 mL increments. Sonication of this mixture was continued until all of the solid had dissolved. Following sonication, the pH of the mixture was raised by the addition of dilute aqueous sodium hydroxide until the mixture reached a pH of about 5.5.
Each rat was weighed and the test compound administered by intraperitoneal injection at 20 mg/kg of body weight. […]
Experimental anxiety was measured by a social interaction test. […] A video camera was fixed above the social interaction box and all behavioral tests were recorded. […] The amount of time that the rat which received test compound spent interacting (i.e. grooming, sniffing, crawling upon) with the other rat was recorded. […]
Social interaction data was analyzed as total interaction time in seconds and the raw scores were compared between baseline and treatment. […]

O[C@H](COc1ccc2ccccc2c1)CN1CCC(O)(c2cnc3ccccc3c2)CC1 [Example 37, 1-((2S)-hydroxy-3-(naphth-2-yloxy)prop-1-yl)-4-hydroxy-4-(quinolin-3-yl)piperidine]
social interaction time as compared to baseline: significantly increase social interaction time as compared to baseline

From patent publication US6242450A, “5-HT1F antagonists” (Eli Lilly and Company, priority 1999, dated 2001)
